# Tested on: 695427-040-R-J1-PDC complex spheroid viability
# Assay: Anticancer human tumor 695427-040-R-J1-PDC patient-derived colon adenocarcinoma cell line growth inhibition [POLQ]
# Settings: for IC50: curve of first compound; for viability, T/C: stronger effect = lower value
# In short: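 Complex spheroid viability model combining PDC tumour cells with endothelial (HUVEC) and MSC stromal cells. Novobiocin, ART-558 or RP6685 were tested singly and in combination with standard and investigational anticancer drugs. Each was titrated in half-log steps from near clinical Cmax, or from 10 microM where Cmax was unknown.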
# 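Also: spheroids exposed to compounds for seven days.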
# 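For viability, T/C in this document: 100% = DMSO vehicle control viability.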
compound,measurement,setting,value
CC(=O)O[C@H]1C(=O)[C@@]2(C)[C@H]([C@H](OC(=O)c3ccccc3)[C@]3(O)C[C@H](OC(=O)[C@H](O)[C@@H](NC(=O)c4ccccc4)c4ccccc4)C(C)=C1C3(C)C)[C@]1(OC(C)=O)CO[C@@H]1C[C@@H]2O + Nc1ccc(C#CCN(C(=O)Cc2ncc(C(F)(F)F)cc2C(F)(F)F)c2ccc(F)cc2)nn1,IC50,second compound 0.0316 µM,> 3 µM
same,IC50,second compound 0.1 µM,> 3 µM
same,IC50,second compound 0.316 µM,> 3 µM
same,IC50,second compound 1 µM,> 3 µM
same,IC50,second compound 3.16 µM,> 3 µM
same,IC50,second compound 10 µM,> 3 µM
same,"viability, T/C","second compound 0.0316 µM, first compound 0.00949 µM",98.2%
same,"viability, T/C","second compound 0.0316 µM, first compound 0.03 µM",93.4%
same,"viability, T/C","second compound 0.0316 µM, first compound 0.0949 µM",93.3%
same,"viability, T/C","second compound 0.0316 µM, first compound 0.3 µM",97.1%
same,"viability, T/C","second compound 0.0316 µM, first compound 0.949 µM",97.9%
same,"viability, T/C","second compound 0.0316 µM, first compound 3 µM",81.2%
same,"viability, T/C","second compound 0.1 µM, first compound 0.00949 µM",99.9%
same,"viability, T/C","second compound 0.1 µM, first compound 0.03 µM",99.6%
same,"viability, T/C","second compound 0.1 µM, first compound 0.0949 µM",91.8%
same,"viability, T/C","second compound 0.1 µM, first compound 0.3 µM",91.5%
same,"viability, T/C","second compound 0.1 µM, first compound 0.949 µM",89.5%
same,"viability, T/C","second compound 0.1 µM, first compound 3 µM",79.7%
same,"viability, T/C","second compound 0.316 µM, first compound 0.00949 µM",108%
same,"viability, T/C","second compound 0.316 µM, first compound 0.03 µM",101%
same,"viability, T/C","second compound 0.316 µM, first compound 0.0949 µM",88.4%
same,"viability, T/C","second compound 0.316 µM, first compound 0.3 µM",91.6%
same,"viability, T/C","second compound 0.316 µM, first compound 0.949 µM",88.9%
same,"viability, T/C","second compound 0.316 µM, first compound 3 µM",90.3%
same,"viability, T/C","second compound 1 µM, first compound 0.00949 µM",102%
same,"viability, T/C","second compound 1 µM, first compound 0.03 µM",93.3%
same,"viability, T/C","second compound 1 µM, first compound 0.0949 µM",102%
same,"viability, T/C","second compound 1 µM, first compound 0.3 µM",99.3%
same,"viability, T/C","second compound 1 µM, first compound 0.949 µM",90.9%
same,"viability, T/C","second compound 1 µM, first compound 3 µM",78.8%
same,"viability, T/C","second compound 3.16 µM, first compound 0.00949 µM",106%
same,"viability, T/C","second compound 3.16 µM, first compound 0.03 µM",84.7%
same,"viability, T/C","second compound 3.16 µM, first compound 0.0949 µM",95.1%
same,"viability, T/C","second compound 3.16 µM, first compound 0.3 µM",90.5%
same,"viability, T/C","second compound 3.16 µM, first compound 0.949 µM",88.2%
same,"viability, T/C","second compound 3.16 µM, first compound 3 µM",86.8%
same,"viability, T/C","second compound 10 µM, first compound 0.00949 µM",92.7%
same,"viability, T/C","second compound 10 µM, first compound 0.03 µM",82.7%
same,"viability, T/C","second compound 10 µM, first compound 0.0949 µM",86.7%
same,"viability, T/C","second compound 10 µM, first compound 0.3 µM",91.2%
same,"viability, T/C","second compound 10 µM, first compound 0.949 µM",90.2%
same,"viability, T/C","second compound 10 µM, first compound 3 µM",86.4%
CC[C@@]1(O)C(=O)OCc2c1cc1n(c2=O)Cc2cc3c(CN(C)C)c(O)ccc3nc2-1 + Nc1ccc(C#CCN(C(=O)Cc2ncc(C(F)(F)F)cc2C(F)(F)F)c2ccc(F)cc2)nn1,IC50,second compound 0.0316 µM,> 0.1 µM
same,IC50,second compound 0.1 µM,> 0.1 µM
same,IC50,second compound 0.316 µM,> 0.1 µM
same,IC50,second compound 1 µM,> 0.1 µM
same,IC50,second compound 3.16 µM,> 0.1 µM
same,IC50,second compound 10 µM,> 0.1 µM
same,"viability, T/C","second compound 0.0316 µM, first compound 0.000316 µM",110%
same,"viability, T/C","second compound 0.0316 µM, first compound 0.001 µM",111%
same,"viability, T/C","second compound 0.0316 µM, first compound 0.00316 µM",102%
same,"viability, T/C","second compound 0.0316 µM, first compound 0.01 µM",102%
same,"viability, T/C","second compound 0.0316 µM, first compound 0.0316 µM",115%
same,"viability, T/C","second compound 0.0316 µM, first compound 0.1 µM",109%
same,"viability, T/C","second compound 0.1 µM, first compound 0.000316 µM",114%
same,"viability, T/C","second compound 0.1 µM, first compound 0.001 µM",105%
same,"viability, T/C","second compound 0.1 µM, first compound 0.00316 µM",104%
same,"viability, T/C","second compound 0.1 µM, first compound 0.01 µM",100%
same,"viability, T/C","second compound 0.1 µM, first compound 0.0316 µM",107%
same,"viability, T/C","second compound 0.1 µM, first compound 0.1 µM",103%
same,"viability, T/C","second compound 0.316 µM, first compound 0.000316 µM",109%
same,"viability, T/C","second compound 0.316 µM, first compound 0.001 µM",102%
same,"viability, T/C","second compound 0.316 µM, first compound 0.00316 µM",108%
same,"viability, T/C","second compound 0.316 µM, first compound 0.01 µM",97.7%
same,"viability, T/C","second compound 0.316 µM, first compound 0.0316 µM",108%
same,"viability, T/C","second compound 0.316 µM, first compound 0.1 µM",101%
same,"viability, T/C","second compound 1 µM, first compound 0.000316 µM",100%
same,"viability, T/C","second compound 1 µM, first compound 0.001 µM",97.8%
same,"viability, T/C","second compound 1 µM, first compound 0.00316 µM",105%
same,"viability, T/C","second compound 1 µM, first compound 0.01 µM",109%
same,"viability, T/C","second compound 1 µM, first compound 0.0316 µM",110%
same,"viability, T/C","second compound 1 µM, first compound 0.1 µM",103%
same,"viability, T/C","second compound 3.16 µM, first compound 0.000316 µM",107%
same,"viability, T/C","second compound 3.16 µM, first compound 0.001 µM",111%
same,"viability, T/C","second compound 3.16 µM, first compound 0.00316 µM",102%
same,"viability, T/C","second compound 3.16 µM, first compound 0.01 µM",107%
same,"viability, T/C","second compound 3.16 µM, first compound 0.0316 µM",114%
same,"viability, T/C","second compound 3.16 µM, first compound 0.1 µM",103%
same,"viability, T/C","second compound 10 µM, first compound 0.000316 µM",99.5%
same,"viability, T/C","second compound 10 µM, first compound 0.001 µM",98.3%
same,"viability, T/C","second compound 10 µM, first compound 0.00316 µM",103%
same,"viability, T/C","second compound 10 µM, first compound 0.01 µM",89.4%
same,"viability, T/C","second compound 10 µM, first compound 0.0316 µM",95.3%
same,"viability, T/C","second compound 10 µM, first compound 0.1 µM",93.9%

# From PubChem BioAssay AID1963840 (Molecular Pharmacology Branch, DTP, NCI, 2024)
